Entries after “also recorded” stand apart in the source; their conditions may differ.
Experiments:
Type in all cases: cell-based
[1] = system: Legionella gormanii (Fluoribacter gormanii)
[2] = system: Legionella pneumophila serogroup 1; settings: 10 mM compound, 37° C., 24 hours, click with CR110-CCH, confocal microscopy
Escherichia coli O13 = system: Escherichia coli O13
Escherichia coli K12 = settings: E. coli K12; 10 mM compound, 37° C., 18 hours; click with CR110-CCH; confocal microscopy

| Compound | detection / labelling signal of bacteria [1] | detection / labelling signal of bacteria [2] | detection / labelling signal of bacteria (Escherichia coli O13) | detection / labelling signal of bacteria (Escherichia coli K12) |
| --- | --- | --- | --- | --- |
| C=C(C[C@@H](O)[C@H]1OC(C)(C)O[C@@H]1[C@H](O)CN=[N+]=[N-])C(=O)OCC [Compound 8a, ethyl (4R)-4-{(4R,5R)-5-[(R)-2-azido-1-hydroxyethyl]-2,2-dimethyl-1,3-dioxolan-4-yl)-4-hydroxy-2-methylenebutanoate] | detected; also recorded: clear labelling signal | detected; also recorded: clear labelling signal | detected; also recorded: clear labelling signal | detected; also recorded: clear labelling signal |
| C=C(C[C@H](O)[C@H]1OC(C)(C)O[C@@H]1[C@H](O)CN=[N+]=[N-])C(=O)OCC [Compound 8b, ethyl (4S)-4-{(4R,5R)-5-[(R)-2-azido-1-hydroxyethyl]-2,2-dimethyl-1,3-dioxolan-4-yl)-4-hydroxy-2-methylenebutanoate] | detected; also recorded: clear labelling signal | detected; also recorded: clear labelling signal | detected; also recorded: clear labelling signal | detected; also recorded: clear labelling signal |
